We go through three molecules from patent publication US7501398B2, “Inhibitor of the folding of the HIV-1-protease as antiviral agent” (priority 2005, dated 2009).

Assay [1] concerns the target T1, HIV-1-Protease (Human immunodeficiency virus type 1 group M subtype B, UniProt P04585, C555A/C583A/L521I/L551I/Q495K). The conditions noted are these: protease:peptide 1:3; protease alone 79%.
Description: Ultraviolet CD spectra were recorded on a Jasco J-810 spectropolarimeter in nitrogen atmosphere at room temperature using 0.1 cm path-length quartz cell. Each spectrum was recorded between 260-200 nm. The data were collected at a rate of 10 nm/min with a wavelength step of 0.2 nm and a time constant of 2 s. The spectra were corrected with respect to the baseline and normalized to the aminoacidic concentration. The protein and the peptide were dissolved in a 20 mM phosphate buffer with 0.8 M NaCl at the same concentration used for the activity assays. The CD spectra were analyzed in terms of contribution of secondary structure elements using the K2D method based on comparison with CD spectra of proteins and peptides with known secondary structure.
The conformational properties of the inhibited protease have been investigated by means of UV circular dichroism experiments.
The target of assay [2] is T1, HIV-1-Protease. Put plainly: biochemical. The assay is classed as biochemical. Set-up: Recombinant HIV-1-Protease, expressed in E. Coli; purchased Sigma P7338; host or cells: E. coli. The conditions noted are these: for Ki: pH 6, 37 °C; for variation in the kinetic parameters with respect to the uninhibited case: control peptides used in the same way as p-S8. As to the method:
Recombinant HIV-1-Protease, expressed in E. Coli (Sigma Cat. no. P7338)contained five mutations to restrict autoproteolysis (Q7K, L33I, […]) and to restrict cysteine thiol oxidation (C67A and C95A). The enzyme was stored at (−70° C. as solution with concentration 25 mg/63 mL in dilute HCl, (pH=1.6)). A chromogenic substrate for HIV-1-PR (Sigma Cat. no. H5535) was obtained as a 1 mg desiccate, diluted with 0.1 ml of DMSO, and stored at −20° C. Protease assisted cleavage between the Nle and the Phe(NO2) residues of substrate entails a blue-shift of the absorption maximum (277 nm to 272 nm). It can be adequately monitored observing the continuous decrease of absorbance at […]. […] Res. Comm 168:274-280.
After that 1 mg of inhibitor peptide was dissolved in […] of DMSO, 4 ml of this solution were then diluted with 16 ml of DMSO and 180 ml of the buffer used for assay.
The buffer was prepared by adding […] NaCl, 1 mM EDTA and 1 mM dithiothreitol to a 20 mM phosphate buffer (pH 6).
The sequences of these control peptides are […] (SEQ ID NO:2) and […] (SEQ ID NO:3) corresponding to fragments 61-70 and 9-19, respectively, of the HIV-1-PR sequence, as well as the […] (SEQ ID NO:4) sequence, which is not related in any way to the protease.
Each measure was performed recording the absorbance at 300 nm (4.13 eV) in a standard UV-vis spectrophotometer (Jasco V-560). […] The sample in the cuvette was exposed to a constant temperature (37±0.05° C.) provided by continuous circulation of water from a water bath to the cell holder via a circulation pump.
After proper thermal stabilization of the substrate dissolved in the buffer (pH 6), the absorbance at 300 nm was recorded. We performed 6 measures spanning a range of substrate concentrations from 50 μM to 250 μM. The reaction was initiated by adding 2.78 μg of enzyme and recording the absorbance decrease at 300 nm for 1200 sec. In all the reported measures the enzyme has thus a nominal concentration of 1.8 μM. Since, to our knowledge, no accurate measure has been published of the dimerization constant of HIV-1-PR at pH=6.0, it is difficult to estimate precisely the active site concentration in our assay.
In all the reported measures the final concentration of inhibitor was [I0]=[…]. The Absorbance decrease at 300 nm was recorded for 1200 sec.

Where [3] appears, read: enzyme:peptide 1:3, pH 6, 37 °C.

On to `CC[C@H](C)[C@H](NC(=O)[C@H](CCC(N)=O)NC(=O)[C@@H](NC(=O)[C@H](CC(C)C)NC(=O)[C@H](CC(C)C)NC(=O)[C@H](CC(N)=O)NC(=O)[C@H](CCCNC(=N)N)NC(=O)CNC(=O)[C@@H](NC(=O)[C@@H](NC(=O)[C@H](CC(N)=O)NC(C)=O)[C@@H](C)CC)[C@@H](C)CC)[C@@H](C)O)C(N)=O` [p-S8, 83N, 84I, 85I, 86G, 87R, 88N, 89L, 90L, 91T, 92Q, 93I], for which, at HIV-1-Protease [1], the “beta-sheet content of protease plus peptide (CD)” value is reported as 45%. In addition, the inhibition mechanism result at HIV-1-Protease [2] is reported as “non-competitive”. For the same molecule, the Ki on HIV-1-Protease [2] (dissociation constant KI (inhibitor-free enzyme)) is 380 ± 810 nM. In addition, the Ki on HIV-1-Protease [2] (dissociation constant K′I (inhibitor-substrate-enzyme complex)) was 180 ± 234 nM. Besides, at HIV-1-Protease [2] (setting [3]), the “apparent dissociation constant K′M of the inhibited reaction” value was found to be 332 ± 191 mM and the “maximum velocity vmax of the inhibited reaction” value is 0.026 ± 0.011 mM/s.
For “LSQETFDLWKLLPEN (Designed Peptide) [K3, reference compound]”, the “variation in the kinetic parameters with respect to the uninhibited case” value with HIV-1-Protease [2] is on record as “no appreciable variation”.
Take “QILIEICGHK (Fragment 61-70 of the HIV-1-PR sequence) [K1, reference compound]”: the “initial velocity v0 of the reaction in presence of peptide” value with HIV-1-Protease [2] ([S0]=125 mM (FIG. 7(b))) amounted to 0.051 µM/s. The “variation in the kinetic parameters with respect to the uninhibited case” value with HIV-1-Protease [2] is reported as “no appreciable variation”.

For orientation: Ki means a measure of affinity in units of concentration, obtained from inhibition or displacement.
